Experimental findings from patent US20050261290A1, “Novel compounds of proline and morpholine derivatives” (priority 2004, published 2005) are described below.

The target in this experiment is human 11b-hsd-1 (Homo sapiens, UniProt P28845). The experiment is described as follows: Inhibition constant Ki of human 11b-hsd-1 (3H-cortisone to 3H-cortisol conversion, HPLC). In kind it is biochemical. The note with it: for Ki: apparent Ki, read-out: Ki app.

Read-outs that look alike come from different tables or passages of the source.

Sequence of human 11b-hsd-1 (P28845 whole entry): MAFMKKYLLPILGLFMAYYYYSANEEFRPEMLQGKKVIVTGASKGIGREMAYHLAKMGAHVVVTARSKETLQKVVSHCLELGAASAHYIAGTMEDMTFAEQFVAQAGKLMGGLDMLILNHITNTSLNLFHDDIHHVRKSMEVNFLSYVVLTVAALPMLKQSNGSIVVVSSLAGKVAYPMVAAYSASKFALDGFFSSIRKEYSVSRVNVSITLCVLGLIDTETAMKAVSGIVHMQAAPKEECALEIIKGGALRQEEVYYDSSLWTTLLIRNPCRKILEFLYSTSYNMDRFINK

Turning to `O=C(NC1C2CC3CC(C2)CC1C3)[C@H]1CCCN1Cc1ccccn1` (stereo partly shown) [Example 41], the Ki (human 11b-hsd-1) is less than 1 nM. For the setting “compound at 0.1 μM”, this compound had an inhibition at 0.1 µM of 100%. Turning to `CCN1CCC(CN2CCOC[C@@H]2C(=O)NC2C3CC4CC(C3)CC2C4)CC1` (stereo partly shown) [Example 75], the inhibition at 0.1 µM (compound at 0.1 μM) was 91%.

On to `O=C(NC12CC3CC(CC(C3)C1)C2)C1COCCN1CCC1CCOCC1` (stereo not shown) [Example 185], for which the Ki (human 11b-hsd-1) amounted to 14 nM. The compound further showed an inhibition at 0.1 µM (compound at 0.1 μM) of 91.3%.

Compound `CC(C)(C)OC(=O)N1CCN(CC2CCCC2)[C@@H](C(=O)NC23CC4CC(CC(C4)C2)C3)C1` [Example 161] yielded an inhibition at 0.1 µM (compound at 0.1 μM) of 8.7%. Where the note is “compound at 0.1 μM”, `NC1C[C@H](C(=O)NC2C3CC4CC(C3)CC2C4)N(CC2CCCC2)C1` (stereo partly drawn) [Example 45, N-2-adamantyl-4-amino-1-(cyclopentylmethyl)-D-prolinamide] returned an inhibition at 0.1 µM of 81%.

`CN(CCN1CCC[C@@H]1C(=O)NC1C2CC3CC(C2)CC1C3)Cc1ccccc1` (stereo partly shown) [Example 110, 1-[2-(Benzyl-methyl-amino)ethyl]-pyrrolidine-2-carboxylic acid adamantan-2-ylamide] yielded an inhibition at 0.1 µM (compound at 0.1 μM) of 100%.

In the case of `CC(C)CN1C[C@H](O)C[C@H]1C(=O)NC12CC3CC(CC(C3)C1)C2` [Example 207], the Ki came to 11 nM. For the same compound, the inhibition at 0.1 µM (0.1 μM compound) was found to be 92.1%. The like results for `O=C(NC1CCCCC1)[C@H]1COCCN1Cc1ccccc1` [Example 302] were, in that order, 3.2 nM and 99.1%. For `CCCN1CCC[C@@H]1C(=O)NCC1CCCC1` [Example 94], the Ki (human 11b-hsd-1) was found to be 11 nM. The compound also gave an inhibition at 0.1 µM (compound at 0.1 μM) of 86%. As to `O=C(NCC1(O)CCCCCC1)[C@H]1CCCN1CC1CCCC1` [Example 68], the Ki (human 11b-hsd-1) stood at 2 nM. The inhibition at 0.1 µM (compound at 0.1 μM) came out at 93.5%. Regarding `O=C(NCc1ccc(F)cc1)[C@H]1CCCN1CC1CC1` [Example 225], the Ki came out at 153 nM. Further, at 0.1 µM the inhibition (0.1 μM compound) was 86.2%.

`CC(C)CN1C[C@H](O)C[C@@H]1C(=O)NC1C2CC3CC(C2)CC1C3` (stereo partly shown) [Example 25]: under “human 11b-hsd-1”, the Ki turned out to be 1.7 nM. This compound displayed an inhibition at 0.1 µM (compound at 0.1 μM) of 100%. Turning to `Cc1ccccc1CNC(=O)[C@H]1CCCN1CCC(F)(F)F` [Example 264], the Ki is 10 nM. This compound also showed an inhibition at 0.1 µM (0.1 μM compound) of 86.5%.

As for `O=C(NCc1ccccc1Cl)[C@H]1CCCN1CCC(F)(F)F` [Example 265], the Ki was determined as 4.1 nM. The compound also yielded an inhibition at 0.1 µM (0.1 μM compound) of 86%. The like results for `O=C(NC12CC3CC(CC(C3)C1)C2)[C@@H]1[C@H]2CC[C@H](C2)N1Cc1ccc(Cl)cc1` (racemic) [Example 204] were, in that order, 1 nM and 100%. For the compound `O=C(NC12CC3CC(CC(C3)C1)C2)[C@H]1CCCN1Cc1ccc(Cl)cc1` [Example 10], the Ki (human 11b-hsd-1) was 0.85 nM. Where the note is “compound at 0.1 μM”, this compound had an inhibition at 0.1 µM of 100%. For `CC(C)CN1CCC[C@@H]1C(=O)NCc1cccc(F)c1` [Example 237], the Ki amounted to 10.3 nM. The compound also returned an inhibition at 0.1 µM (0.1 μM compound) of 100%.

As to `O=C(NCc1ccc(F)cc1F)[C@H]1CCCN1CCC(F)(F)F` [Example 242], the Ki is 44 nM. Further, 0.1 µM produced 78.9% inhibition (0.1 μM compound). In the same order, the values of `O=C(NC1C2CC3CC(C2)CC1C3)[C@@H]1C[C@H](Oc2ccc(F)c(F)c2F)CN1` (stereo partly shown) [Example 355] are 1 nM and 100%. As for `CC1(C)CC(NC(=O)C2COCCN2Cc2cccc(C#N)c2)CC(C)(C)C1` (stereo not shown) [Example 187], for the setting “human 11b-hsd-1”, the Ki is 3 nM. Moreover, 0.1 µM produced 100% inhibition (compound at 0.1 μM). The like results for `CC(C)CN1CCC[C@@H]1C(=O)NCc1ccccc1` [Example 4] were, in that order, 3.6 nM and 94%. As to `CC12C3C4C1C1C2C3C41NC(=O)[C@H]1CCCN1` (stereo partly shown) [Example 143], the inhibition at 0.1 µM (compound at 0.1 μM) turned out to be 10%. As for `CC1(C(=O)NC2CCCCC2)CCCN1Cc1ccc(C#N)cc1` (stereo not shown) [Example 59], under “human 11b-hsd-1”, the Ki stood at 22 nM. Under “compound at 0.1 μM”, this compound displayed an inhibition at 0.1 µM of 71%. As to `O=C(NCc1ccccc1Cl)[C@H]1CCCN1Cc1ccccc1` [Example 247], the Ki was found to be 14 nM. Also, the inhibition at 0.1 µM (0.1 μM compound) was 88%.

Take `O=C(NC12CC3CC(CC(C3)C1)C2)[C@H]1CCCN1CC(F)(F)F` [Example 22]: for the setting “human 11b-hsd-1”, the Ki was 0.85 nM. Also, the inhibition at 0.1 µM (compound at 0.1 μM) was found to be 100%. In the case of `CC(C)CN1CCC[C@@H]1C(=O)NCc1ccc(F)cc1F` [Example 238], the Ki turned out to be 16.3 nM. The compound also displayed an inhibition at 0.1 µM (0.1 μM compound) of 88.4%. For the compound `O=C(NC1C2CC3CC(C2)CC1C3)[C@H]1CCCN1C[C@@H]1CCCN1` (stereo partly shown) [Example 141], for the setting “compound at 0.1 μM”, 0.1 µM produced 76% inhibition. In the case of `O=C(NC12CC3CC(CC(C3)C1)C2)C1COCCN1CC1CCCC1` (stereo not shown) [Example 183], the Ki (human 11b-hsd-1) was 2.1 nM. For the same compound, the inhibition at 0.1 µM (compound at 0.1 μM) worked out at 100%. For the compound `CN(C(=O)C1COCCN1CC1CCCCC1)C1CCCCC1` (stereo not shown) [Example 180], where the note is “human 11b-hsd-1”, the Ki came to 32 nM. This compound also gave an inhibition at 0.1 µM (compound at 0.1 μM) of 72.1%.

As to `CCN(CC)CCN1CCC[C@@H]1C(=O)NC1C2CC3CC(C2)CC1C3` (stereo partly shown) [Example 109], under “compound at 0.1 μM”, at 0.1 µM the inhibition was 77%. The same measure, in the same setting: with `CS(=O)(=O)N1CCC[C@H]1CN1CCC[C@@H]1C(=O)NC1C2CC3CC(C2)CC1C3` (stereo partly shown) [Example 135] the figure was 100%. `O=C(NC1C2CC3CC(C2)CC1C3)[C@H]1C[C@@H](O)CN1Cc1ccccc1` (stereo partly shown) [Example 26]: the Ki (human 11b-hsd-1) came to 1 nM. In addition, the inhibition at 0.1 µM (compound at 0.1 μM) was determined as 100%. The like results for `Cc1ncccc1CNC(=O)[C@H]1CCCN1CC(C)C` [Example 40] were, in that order, 19 nM and 100%. Regarding `O=C(NC1Cc2ccccc2C1)[C@H]1CCCN1CC1CCCC1` [Example 294], the Ki was 8.52 nM. This compound yielded an inhibition at 0.1 µM (0.1 μM compound) of 100%. Compound `O=C(NC1C2CC3CC(C2)CC1C3)[C@H]1C[C@@H](O)CN1CC1CCOCC1` (stereo partly shown) [Example 48] showed an inhibition at 0.1 µM (compound at 0.1 μM) of 83%. With `O=C(NCc1ccccc1)[C@H]1CCCN1CC1CCCCC1` [Example 3, N-benzyl-1-(cyclohexylmethyl)-D-prolinamide], the Ki (human 11b-hsd-1) is 15 nM. For the same compound, the inhibition at 0.1 µM (compound at 0.1 μM) worked out at 92%. In the case of `N#Cc1ccc(CN2CCOC[C@@H]2C(=O)NCC2CCCCC2)cc1` [Example 334], the Ki came to 2.4 nM. In addition, the inhibition at 0.1 µM (0.1 μM compound) came to 100%.

In the case of `O=C(NC1CCCCC1)[C@H]1CCCN1CC1CC1` [Example 102], the Ki (human 11b-hsd-1) came to 7 nM. Further, under “compound at 0.1 μM”, 0.1 µM produced 91% inhibition. Consider `CC1(C)CC(NC(=O)C2COCCN2Cc2cccc(OC(F)F)c2)CC(C)(C)C1` (stereo not shown) [Example 189], for which the Ki (human 11b-hsd-1) amounted to 1.1 nM. This compound had an inhibition at 0.1 µM (compound at 0.1 μM) of 100%. The like results for `CCOc1ccccc1CNC(=O)[C@H]1CCCN1CC(C)C` [Example 53] were, in that order, 4.6 nM and 100%. Where the note is “compound at 0.1 μM”, `CN(C)CCN1CCOC[C@@H]1C(=O)NC1C2CC3CC(C2)CC1C3` (stereo partly drawn) [Example 44, (3R)-N-2-adamantyl-4-[2-(dimethylamino)ethyl]morpholine-3-carboxamide] yielded an inhibition at 0.1 µM of 59.4%. Regarding `CCc1ccccc1O[C@@H]1CN[C@H](C(=O)NC2C3CC4CC(C3)CC2C4)C1` (stereo partly shown) [Example 350], the Ki stood at 2.2 nM. For the same compound, testing at 0.1 µM (0.1 μM compound) gave an inhibition of 100%.

Take `Cc1ccccc1CNC(=O)[C@H]1CCCN1CCc1ccccc1` [Example 270]: the Ki turned out to be 35 nM. For the setting “0.1 μM compound”, this compound had an inhibition at 0.1 µM of 84.7%.
